# Activity calls are given as the source filed them. The rule behind the calls is not given here.
# Assays:
# Neuraminidase = Neuraminidase (Influenza A virus, UniProt B4URF0); design: species or system Influenza A virus (A/Anhui/1/2005(H5N1))
# [1] = Inhibition of Influenza A virus (A/California/04/2009(H1N1)) Neuraminidase using MUNANA as substrate preincubated for 5 to 15 mins followed by substrate addition and measured after 30 mins by fluorescence spectrophotometric method
# Influenza A virus [2] = type: functional, organism-based; settings: A/California/04/2009(H1N1), MDCK, time 46.0 hrs
# MDCK = test: Cytotoxicity against MDCK cells assessed as reduction in cell viability at 250 uM; type: cell-based, Canis lupus familiaris; settings: dog
# [3] = Stability of the compound in human plasma assessed as parent compound remaining measured immediately; type: ADME, cell-free; settings: read-out: Stabilty
# [4] = Stability of the compound in human plasma assessed as parent compound remaining measured after 10 mins; type: ADME, cell-free; settings: read-out: Stabilty
# [5] = Stability of the compound in human plasma assessed as parent compound remaining measured after 30 mins; type: ADME, cell-free; settings: read-out: Stabilty
# [6] = Stability of the compound in human plasma assessed as parent compound remaining measured after 60 mins; type: ADME, cell-free; settings: read-out: Stabilty
# [7] = Stability of the compound in human plasma assessed as parent compound remaining measured after 120 mins; type: ADME, cell-free; settings: read-out: Stabilty
# in vitro [8] = settings: mouse, liver microsomes
# in vitro [9] = settings: rat, liver microsomes
# in vitro [10] = settings: human, liver microsomes
# Influenza A virus [11] = test: microbe, parasite or virus in culture; settings: A/California/04/2009(H1N1), MDCK, 48 h
# Chain of Neuraminidase (B4URF0 whole entry): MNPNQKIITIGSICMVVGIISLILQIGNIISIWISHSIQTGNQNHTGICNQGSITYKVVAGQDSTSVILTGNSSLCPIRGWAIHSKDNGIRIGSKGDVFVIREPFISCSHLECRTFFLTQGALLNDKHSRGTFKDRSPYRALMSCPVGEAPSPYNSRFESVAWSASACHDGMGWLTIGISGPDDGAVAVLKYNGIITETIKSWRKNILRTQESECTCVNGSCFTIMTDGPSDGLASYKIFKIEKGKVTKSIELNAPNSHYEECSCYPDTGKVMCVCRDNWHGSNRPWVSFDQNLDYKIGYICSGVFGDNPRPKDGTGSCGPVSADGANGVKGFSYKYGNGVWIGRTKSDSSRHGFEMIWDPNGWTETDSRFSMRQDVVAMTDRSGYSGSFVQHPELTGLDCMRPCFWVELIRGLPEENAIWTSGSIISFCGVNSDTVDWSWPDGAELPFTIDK
SMILES,IC50 (Neuraminidase) [nM],also measured
CCC(CC)O[C@@H]1C=C(C(=O)O)C[C@H](NC(=O)NN)[C@H]1NC(C)=O,26.8,IC50 [1]: 11.9 nM; Activity (Influenza A virus [2]): inactive; Activity (MDCK): Non-Toxic; remaining at 0 min [3]: 100%; remaining at 10 min [4]: 88.6%; remaining at 0.5 h [5]: 98.8%; remaining at 1 h [6]: 99.5%; remaining at 2 h [7]: 107%; half-life (in vitro [8]): 49.7 min; half-life (in vitro [9]): 45.9 min; half-life (in vitro [10]): 72.9 min; EC50 (Influenza A virus [11]): 7.8 nM
CCCCCNNC(=O)N[C@H]1CC(C(=O)O)=C[C@@H](OC(CC)CC)[C@@H]1NC(C)=O,1100,
CCCCCCCCNNC(=O)N[C@H]1CC(C(=O)O)=C[C@@H](OC(CC)CC)[C@@H]1NC(C)=O,> 10000,
CCCCNNC(=O)N[C@H]1CC(C(=O)O)=C[C@@H](OC(CC)CC)[C@@H]1NC(C)=O,38.3,IC50 [1]: 332 nM
CCCNNC(=O)N[C@H]1CC(C(=O)O)=C[C@@H](OC(CC)CC)[C@@H]1NC(C)=O,241,
CCC(CC)O[C@@H]1C=C(C(=O)O)C[C@H](NC(=O)NNCCC(C)C)[C@H]1NC(C)=O,1530,
CCC(CC)O[C@@H]1C=C(C(=O)O)C[C@H](NC(=O)NNCc2cccc(Cl)c2)[C@H]1NC(C)=O,5850,
CCC(CC)O[C@@H]1C=C(C(=O)O)C[C@H](NC(=O)NNCc2ccccc2)[C@H]1NC(C)=O,4350,
CCC(CC)O[C@@H]1C=C(C(=O)O)C[C@H](NC(=O)NNCC2CC2)[C@H]1NC(C)=O,4110,
CCC(CC)O[C@@H]1C=C(C(=O)O)C[C@H](NC(=O)NNCc2ccccc2Cl)[C@H]1NC(C)=O,586,
CCC(CC)O[C@@H]1C=C(C(=O)O)C[C@H](NC(=O)NNCc2ccc(OC)cc2)[C@H]1NC(C)=O,567,
CCC(CC)O[C@@H]1C=C(C(=O)O)C[C@H](NC(=O)NNCC(C)C)[C@H]1NC(C)=O,2320,
CCC(CC)O[C@@H]1C=C(C(=O)O)C[C@H](N)[C@H]1NC(C)=O [OSELTAMIVIR CARBOXYLATE],,EC50 (Influenza A virus [11]): 1.4 nM
CCC(CC)O[C@@H]1C=C(C(=O)O)C[C@H](NC(=O)NNC/C=C/c2ccccc2)[C@H]1NC(C)=O,7850,
CCC(CC)O[C@@H]1C=C(C(=O)O)C[C@H](NC(=O)NNCc2cccc(OC)c2)[C@H]1NC(C)=O,326,
CCC(CC)O[C@@H]1C=C(C(=O)O)C[C@H](NC(=O)NNCc2ccccc2OC)[C@H]1NC(C)=O,2760,
CCC(CC)O[C@@H]1C=C(C(=O)O)C[C@H](NC(=O)NNCCCc2ccccc2)[C@H]1NC(C)=O,9150,
CCC(CC)O[C@@H]1C=C(C(=O)O)C[C@H](NC(=O)NNC2CCOCC2)[C@H]1NC(C)=O,1210,
CCCCCCCNNC(=O)N[C@H]1CC(C(=O)O)=C[C@@H](OC(CC)CC)[C@@H]1NC(C)=O,575,
CCC(CC)O[C@@H]1C=C(C(=O)O)C[C@H](NC(=O)NNCc2ccc(Cl)cc2)[C@H]1NC(C)=O,875,
CCCCCCNNC(=O)N[C@H]1CC(C(=O)O)=C[C@@H](OC(CC)CC)[C@@H]1NC(C)=O,4980,
CCC(CC)O[C@@H]1C=C(C(=O)O)C[C@H](NC(=O)NNCCc2ccccc2)[C@H]1NC(C)=O,2460,
CCC(CC)O[C@@H]1C=C(C(=O)O)C[C@H](NC(N)=O)[C@H]1NC(C)=O,254,IC50 [1]: 8.7 nM
CCC(CC)O[C@@H]1C=C(C(=O)O)C[C@H](NC(=O)NNC)[C@H]1NC(C)=O,,IC50 [1]: 249 nM
CCNNC(=O)N[C@H]1CC(C(=O)O)=C[C@@H](OC(CC)CC)[C@@H]1NC(C)=O,576,

# From ChEMBL document CHEMBL4837229 (Eur J Med Chem, 2021)
